This is an account of results in patent US6785989B2, “Methods and apparatus for removal of wrinkles from fabrics” (The Procter & Gamble Company, priority 2000, dated 2004).

One data set can be described thus: Perfume component interaction with cyclodextrin (CD interaction). The class given is physicochemical. The note with it: perfume component complexing with cyclodextrin. An excerpt: The following table illustrates the molecular weight property of some of the preferred perfume versus non-preferred perfume components.
For `CC(C=O)Cc1ccc(C(C)C)cc1` (centres unmarked) [Cymal], the CD interaction entry is given as “strong”.
In the case of `CCOC(=O)c1ccccc1C(=O)OCC` [Diethyl Phthalate], the CD interaction result was “weak”.
In the case of `CC(=O)OC1CC2CC1C1CC=CC21` (centres unmarked) [Flor Acetate], the CD interaction result is “strong”.
For `CCC(=O)OC1CC2CC1C1CC=CC21` (centres unmarked) [Frutene], the CD interaction entry was “strong”.
Still for that read-out and setting: under `CC1COCc2cc3c(cc21)C(C)(C)C(C)C3(C)C` (centres unmarked) [Galaxolide] stands “weak”.
Turning to `CCCCCCOC(=O)c1ccccc1O` [Hexyl Salicylate], the CD interaction entry is recorded as “weak”.
For the molecule `CCCCCCC(C=O)=Cc1ccccc1` [Hexyl cinnamic Aldehyde], the CD interaction result is “weak”.
As for `CC(=O)C1(C)CC2=C(CCCC2(C)C)CC1C` (centres unmarked) [Iso-E Super], the CD interaction result is “weak”.
As for `CCCCCCCCCCCCCC(=O)OC(C)C` [Iso-propyl Myristate], the CD interaction result was “weak”.
As to `CC(=O)C(C)=C(C)C(C)C(C)(C)C` (centres unmarked) [Koavone], the CD interaction entry is listed as “strong”.
Same read-out and setting: under `CC(C=O)Cc1ccc(C(C)(C)C)cc1` (centres unmarked) [Lilial, p-t-bucinal] stands “strong”; under `CC(C)(O)CCCC1=CCC(C=O)CC1` (centres unmarked) [Lyral], “weak”.
With `CCCCCC1C(=O)CCC1CC(=O)OC` (centres unmarked) [Methyl Dihydro Jasmonate], the CD interaction result was “weak”.
Regarding `O=C(Cc1ccccc1)OCCc1ccccc1` [Phenyl-Ethyl-Phenyl Acetate], the CD interaction entry is given as “weak”.
Consider `CC(=O)OC(C)(C)C1CC=C(C)CC1` (centres unmarked) [Terpinyl Acetate], for which the CD interaction entry is recorded as “significant”.
On to `CCC(C)(O)CCCC(C)C` (centres unmarked) [Tetrahydrolinalol], for which the CD interaction entry was “significant”.
Take `CC(=O)OC1CCC(C(C)(C)C)CC1` (centres unmarked) [Vertenex, para-tert-butylcyclohexyl acetate]: the CD interaction entry is reported as “strong”.
Regarding `CC(=O)/C=C/C1C(C)=CCCC1(C)C` (centres unmarked) [a-ionone], the CD interaction entry is on record as “strong”.
As for a-Me Ionone, the CD interaction entry is on record as “strong”.

Test in another data set: not given
The note with it: cited from earlier work.
Turning to `OCCOc1ccccc1` [2-phenoxyethanol], the solubility in water result was “about 2.67%”.
In the case of `OCCc1ccccc1` [2-phenylethanol], the solubility in water entry was “about 2%”.
Regarding `O=[N+]([O-])C1(Br)COCOC1` [Bronidox L, 5-bromo-5-nitro-1,3-dioxane], the solubility in water entry is “about 0.46%”.
Consider `CC1(C)C(=O)N(CO)C(=O)N1CO` [DMDM hydantoin, 1,3-bis(hydroxymethyl)-5,5-dimethyl-2,4-imidazolidinedione], for which the solubility in water result was “more than 50%”.
`ClC=CC[N+]12CN3CN(CN(C3)C1)C2.[Cl-]` [Dowicil 200, 1-(3-Chlorallyl)-3,5,7-triaza-1-azoniaadamantane chloride]: the “solubility in water” value is “freely soluble”.
For the molecule `OCc1ccccc1` [benzyl alcohol], the solubility in water result is “about 4%”.
For the molecule `[H]/N=C(\N/C(=N/[H])NCCCCCCNC(=N)NC(=N)Nc1ccc(Cl)cc1)Nc1ccc(Cl)cc1` [chlorhexidine diacetate, 1,1′-hexamethylene bis(5-(p-chlorophenyl)biguanide), reference compound], the solubility in water result is reported as “about 1.8%”.
Turning to `[H]/N=C(\N/C(=N/[H])NCCCCCCNC(=N)NC(=N)Nc1ccc(Cl)cc1)Nc1ccc(Cl)cc1` [chlorhexidine digluconate, 1,1′-hexamethylene bis(5-(p-chlorophenyl)biguanide), reference compound], the solubility in water result is reported as “about 70%”.
`CC(C)(O)C(Cl)(Cl)Cl` [chlorobutanol, 1,1,1-Trichloro-2-methylpropan-2-ol]: the solubility in water result is “about 0.8%”.
As for `[Na+].[O-][n+]1ccccc1[S-]` [sodium pyrithione], the solubility in water entry is “about 50%”.
